From US7001905B2, “Substituted diarylamines as MEK inhibitors” (Warner-Lambert Company, priority 2000, dated 2006) come the findings set out here.

Usually IC50 stands for the point on the concentration scale where inhibition reaches its midpoint. The low end stands for higher potency, the high end for lower potency.

For the first experiment, the target named is T1, MEK (Homo sapiens, UniProt Q02750).
T1 construct: no tag is given for the 2D mutant
T1 sequence (Q02750 whole entry S218D/S222D, form open): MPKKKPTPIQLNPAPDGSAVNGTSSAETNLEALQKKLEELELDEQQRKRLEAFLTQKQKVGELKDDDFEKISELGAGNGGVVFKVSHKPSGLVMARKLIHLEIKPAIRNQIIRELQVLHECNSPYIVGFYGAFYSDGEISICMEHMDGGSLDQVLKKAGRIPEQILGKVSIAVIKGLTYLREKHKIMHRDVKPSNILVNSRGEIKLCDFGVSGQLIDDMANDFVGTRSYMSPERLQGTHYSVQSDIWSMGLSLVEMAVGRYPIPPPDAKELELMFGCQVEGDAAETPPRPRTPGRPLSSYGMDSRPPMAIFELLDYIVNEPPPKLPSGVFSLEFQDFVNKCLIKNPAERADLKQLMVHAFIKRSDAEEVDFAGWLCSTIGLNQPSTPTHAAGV
The experiment in a line: in vitro MEK assay. Type of experiment: biochemical.
Conditions: not given
On the procedure:
For evaluation of direct MEK activity, 10 μg GST-MEK, is incubated in the presence of absence of test compound with 5 μg of a glutathione S-transferase fusion protein containing p44MAP kinase with a lysine to alanine mutation at position 71 (GST-MAPK-KA). This mutation eliminates kinase activity of MAPK, so only kinase activity attributed to the added MEK remains. Incubations are 15 minutes at 30° C. in a final volume of 50 μL containing 50 mM Tris (pH 7.5), […], 2, μM EGTA, and 10 μM [γ-^32P]ATP. The reaction is stopped by addition of Laemmli SDS sample buffer. Phosphorylated GST-MAPK-KA is resolved by electrophoresis on a 10% polyacrylamide gel. Radioactivity incorporated into GST-MAPK-KA is determined by autoradiography, and subsequent scintillation counting of excised bands.
Alternatively, an artificially activated MEK containing serine to glutamate mutations at positions 218 and 222 (GST-MEK-2E) is used. When these two sites are phosphorylated, MEK activity is increased. Phosphorylation of these sites can be mimicked by mutation of the serine residues to glutamate. For this assay, 5 μg GST-MEK-2E is incubated with 5 μg GST-MAPK-KA for 15 minutes at 30° C. in the same reaction buffer as described above. Reactions are terminated and analyzed as above.
`Cc1cc(I)ccc1N1COC(=O)c2cc(C(=O)N(C)C)c(F)c(F)c21` [Example 5, 7,8-Difluoro-1-(4-iodo-2-methyl-phenyl)-4-oxo-1,4-dihydro-2H-benzo[d][1,3]oxazine-6-carboxylic acid dimethylamide] yielded an IC50 of 5.8 µM.

Still in this experiment, the particulars now being: @ 1 μM.
`Cc1cc(I)ccc1N1COC(=O)c2cc(C(=O)NC3CCCC[C@@H]3O)c(F)c(F)c21` (stereo in doubt) [Example 60, 7,8-difluoro-1-(4-iodo-2-methyl-phenyl)-4-oxo-1,4-dihydro-2H-3,1-benzoxazine-6-carboxylic acid ((S)-2-hydroxy-cyclohexyl)-amide]: the “in vitro MEK assay: % inhibition @ 1 μM” value is on record as 30%.

As to `Cc1cc(I)ccc1N1COC(=O)c2cc(C(=O)N3CC[C@@H](O)C3)c(F)c(F)c21` [Example 8, 7,8-Difluoro-6-((R)-3-hydroxy-pyrrolidine-1-carbonyl)-1-(4-iodo-2-methyl-phenyl)-1,2-dihydro-3,1-benzoxazin-4-one], the “in vitro MEK assay: % inhibition @ 1 μM” value turned out to be 34%. Regarding `COC[C@@H]1CCCN1C(=O)c1cc2c(c(F)c1F)N(c1ccc(I)cc1C)COC2=O` [Example 9, 7,8-Difluoro-1-(4-iodo-2-methyl-phenyl)-6-((S)-2-methoxymethyl-pyrrolidine-1-carbonyl)-1,2-dihydro-3,1-benzoxazin-4-one], the “in vitro MEK assay: % inhibition @ 1 μM” value is 93%. In the case of `Cc1cc(I)ccc1N1COC(=O)c2cc(C(=O)NCCN3CCCCC3)c(F)c(F)c21` [Example 10, 7,8-Difluoro-1-(4-iodo-2-methyl-phenyl)-4-oxo-1,4-dihydro-2H-3,1-benzoxazine-6-carboxylic acid (2-piperidin-1-yl-ethyl)-amide], the “in vitro MEK assay: % inhibition @ 1 μM” value is listed as 44%. Still for that read-out and setting: the figure for `Cc1cc(I)ccc1N1COC(=O)c2cc(C(=O)NCCN3CCCC3)c(F)c(F)c21` [Example 11, 7,8-Difluoro-1-(4-iodo-2-methyl-phenyl)-4-oxo-1,4-dihydro-2H-3,1-benzoxazine-6-carboxylic acid (2-pyrrolidin-1-yl-ethyl)-amide] is 33%; for `Cc1cc(I)ccc1N1COC(=O)c2cc(C(=O)NCCCN3CCCC3=O)c(F)c(F)c21` [Example 12, 7,8-Difluoro-1-(4-iodo-2-methyl-phenyl)-4-oxo-1,4-dihydro-2H-3,1-benzoxazine-6-carboxylic acid [3-(2-oxo-pyrrolidin-1-y)-propyl]-amide] it is 21%. On the same count and under the same terms, then `Cc1cc(I)ccc1N1COC(=O)c2cc(C(=O)NCC3(O)CCCCC3)c(F)c(F)c21` [Example 13, 7,8-Difluoro-1-(4-iodo-2-methyl-phenyl)-4-oxo-1,4-dihydro-2H-3,1-benzoxazine-6-carboxylic acid (1-hydroxy-cyclohexylmethyl)-amide], with 23%; and `Cc1cc(I)ccc1N1COC(=O)c2cc(C(=O)N3CCN(C=O)CC3)c(F)c(F)c21` [Example 15, 4-[7,8-Difluoro-1-(4-iodo-2-methyl-phenyl)-4-oxo-1,4-dihydro-2H-3,1-benzoxazine-6-carbonyl]-piperazine-1-carbaldehyde], with 13%; and `Cc1cc(I)ccc1N1COC(=O)c2cc(C(=O)N(C)C3CCN(C)CC3)c(F)c(F)c21` [Example 16], with 0%. Still for that read-out and setting: the figure for `Cc1cc(I)ccc1N1COC(=O)c2cc(C(=O)N3CCN(C)CC3)c(F)c(F)c21` [Example 17] is 78%; for `Cc1cc(I)ccc1N1COC(=O)c2cc(C(=O)NCCOCCO)c(F)c(F)c21` [Example 18, 7,8-Difluoro-1-(4-iodo-2-methyl-phenyl)-4-1,4-dihydro-2H-3,1-benzoxazine-6-carboxylic acid [2-(2-hydroxy-ethoxy)-ethyl]-amide] it is 43%. Turning to `Cc1cc(I)ccc1N1COC(=O)c2cc(C(=O)NCCC3CCCN3C)c(F)c(F)c21` (stereo not shown) [Example 19, 7,8-Difluoro-1-(4-iodo-2-methyl-phenyl)-4-oxo-1,4-dihydro-2H-3,1-benzoxazine-6-carboxylic acid [2-(1-methyl-pyrrolidin-2-yl)ethyl]-amide], the “in vitro MEK assay: % inhibition @ 1 μM” value amounted to 28%.

Take `Cc1cc(I)ccc1N1COC(=O)c2cc(C(=O)N(C)CCO)c(F)c(F)c21` [Example 20, 7,8-Difluoro-1-(4-iodo-2-methyl-phenyl)-4-oxo-1,4-dihydro-2H-3,1-benzoxazine-6-carboxylic acid (2-hydroxy-ethyl)-methyl-amide]: the “in vitro MEK assay: % inhibition @ 1 μM” value stood at 41%.

In the case of `Cc1cc(I)ccc1N1COC(=O)c2cc(C(=O)Nc3nncs3)c(F)c(F)c21` [Example 21, 7,8-Difluoro-1-(4-iodo-2-methyl-phenyl)-oxo-1,4-dihydro-2H-3,1-benzoxazine-6-carboxylic acid 1,3,4-thiadiazol-2-ylamide], the “in vitro MEK assay: % inhibition @ 1 μM” value came to 31%. The same measure, in the same setting: then `COCC(C)NC(=O)c1cc2c(c(F)c1F)N(c1ccc(I)cc1C)COC2=O` (stereo not shown) [Example 22, 7,8-Difluoro-1-(4-iodo-2-methyl-phenyl)-4-oxo-1,4-dihydro-2H-3,1-benzoxazine-6-carboxylic acid (2-methoxy-1-methyl-ethyl)-amide], with 46%; and `Cc1cc(I)ccc1N1COC(=O)c2cc(C(=O)Nc3nc4c(C)cccc4s3)c(F)c(F)c21` [Example 23, 7,8-Difluoro-1-(4-iodo-2-methyl-phenyl)-4-oxo-1,4-dihydro-2H-3,1-benzoxazine-6-carboxylic acid (4-methyl-benzothiazol-2-yl)-amide], with 26%. Same read-out and setting: the figure for `Cc1csc(NC(=O)c2cc3c(c(F)c2F)N(c2ccc(I)cc2C)COC3=O)n1` [Example 24, ,8-Difluoro-1-(4-iodo-2-methyl-phenyl)-4-oxo-1,4dihydro-2H-3,1-benzoxazine-6-carboxylic acid (4-methyl-thiazol-2-yl)-amide] is 20%; for `CCSc1nnc(NC(=O)c2cc3c(c(F)c2F)N(c2ccc(I)cc2C)COC3=O)s1` [Example 25, 7,8-Difluoro-1-(4-iodo-2-methyl-phenyl)-4-oxo-1,4-dihydro-2H-3,1-benzoxazine-6-carboxylic acid (5-ethylsulfanyl-1,3,4-thiadiazol-2-yl)-amide] it is 5%; for `CCc1nnc(NC(=O)c2cc3c(c(F)c2F)N(c2ccc(I)cc2C)COC3=O)s1` [Example 26, 7,8-Difluoro-1-(4-iodo-2-methyl-phenyl)-4-oxo-1,4-dihydro-2H-3,1-benzoxazine-6-carboxylic acid (5-ethyl-1,3,4-thiadiazol-2-yl)-amide] it is 20%. Still for that read-out and setting: then `Cc1cc(I)ccc1N1COC(=O)c2cc(C(=O)Nc3nnc(S)s3)c(F)c(F)c21` [Example 27, 7,8-Difluoro-1-(4-iodo-2-methyl-phenyl)-4-oxo-1,4-dihydro-2H-3,1-benzoxazine-6-carboxylic acid (5-mercapto-1,3,4-thiadiazol-2-yl)-amide], with 27%; and `CCOc1ccc2nc(NC(=O)c3cc4c(c(F)c3F)N(c3ccc(I)cc3C)COC4=O)sc2c1` [Example 28, 7,8-Difluoro-1-(4-iodo-2-methyl-phenyl)-4-oxo-1,4-dihydro-2H-3,1-benzoxazine-6-carboxylic acid (6-ethoxy-benzothiazol-2-yl)-amide], with 9%.

In the case of `Cc1cc(I)ccc1N1COC(=O)c2cc(C(=O)Nc3nc4ccccc4s3)c(F)c(F)c21` [Example 29, 7,8-Difluoro-1-(4-iodo-2-methyl-phenyl)-4-oxo-1,4-dihydro-2H-3,1-benzoxazine-6-carboxylic acid benzothiazol-2-ylamide], the “in vitro MEK assay: % inhibition @ 1 μM” value amounted to 21%. Regarding `Cc1cc(I)ccc1N1COC(=O)c2cc(C(=O)Nc3ccccc3CCO)c(F)c(F)c21` [Example 30, 7,8-Difluoro-1-(4-iodo-2-methyl-phenyl)-4-oxo-1,4-dihydro-2H-3,1-benzoxazine-6-carboxylic acid [2-(2-hydroxy-ethyl)-phenyl]-amide], the “in vitro MEK assay: % inhibition @ 1 μM” value stood at 55%. Still for that read-out and setting: then `Cc1cc(I)ccc1N1COC(=O)c2cc(C(=O)Nc3nccs3)c(F)c(F)c21` [Example 31, 7,8-Difluoro-1-(4-iodo-2-methyl-phenul)-4-oxo-1,4-dihydro-2H-3,1-benzoxazine-6-carboxylic acid thiazol-2-ylamide], with 32%. The same measure, in the same setting: then `Cc1cc(I)ccc1N1COC(=O)c2cc(C(=O)N3CCCCC3CCO)c(F)c(F)c21` (stereo not shown) [Example 32, 7,8-Difluoro-6-[2-(2-hydroxy-ethyl)-piperidine-1-carbonyl]-1-(4-iodo-2-methyl-phenyl)-1,2-dihydro-3,1-benzoxazin-4-one], with 76%. The same measure, in the same setting: then `Cc1cc(I)ccc1N1COC(=O)c2cc(C(=O)N3CCCCC3CO)c(F)c(F)c21` (stereo not shown) [Example 33, 7,8-Difluoro-6-(2-hydroxymethyl-piperidine-1-carbonyl)-1-(4-iodo-2-methyl-phenyl)-1,2-dihydro-3,1-benzoxazin-4-one], with 79%; and `CCOC(=O)c1c[nH]nc1NC(=O)c1cc2c(c(F)c1F)N(c1ccc(I)cc1C)COC2=O` [Example 34, 3-{[7,8-Difluoro-1-(4-iodo-2-methyl-phenyl)-4-oxo-1,4-dihydro-2H-3,1-benzoxazine-6-carbonyl]-amino}-1H-pyrazole-4-carboxylic acid ethyl ester], with 72%.
